We go through 82 compounds from the Kinase Knowledgebase extract (Sharma et al. 2016).

Structures are written as SMILES. pIC50: −log10 of the molar value. Where “and” joins values, the source holds several entries; their conditions need not be identical. Equal entries are not always repeated. Some results are limits rather than exact numbers.

The target of this test is PIK3CD (Human) (UniProt O00329). The experiment in a line: Enzyme Assay.
Chain of PIK3CD (Human) (O00329 whole entry, looked up): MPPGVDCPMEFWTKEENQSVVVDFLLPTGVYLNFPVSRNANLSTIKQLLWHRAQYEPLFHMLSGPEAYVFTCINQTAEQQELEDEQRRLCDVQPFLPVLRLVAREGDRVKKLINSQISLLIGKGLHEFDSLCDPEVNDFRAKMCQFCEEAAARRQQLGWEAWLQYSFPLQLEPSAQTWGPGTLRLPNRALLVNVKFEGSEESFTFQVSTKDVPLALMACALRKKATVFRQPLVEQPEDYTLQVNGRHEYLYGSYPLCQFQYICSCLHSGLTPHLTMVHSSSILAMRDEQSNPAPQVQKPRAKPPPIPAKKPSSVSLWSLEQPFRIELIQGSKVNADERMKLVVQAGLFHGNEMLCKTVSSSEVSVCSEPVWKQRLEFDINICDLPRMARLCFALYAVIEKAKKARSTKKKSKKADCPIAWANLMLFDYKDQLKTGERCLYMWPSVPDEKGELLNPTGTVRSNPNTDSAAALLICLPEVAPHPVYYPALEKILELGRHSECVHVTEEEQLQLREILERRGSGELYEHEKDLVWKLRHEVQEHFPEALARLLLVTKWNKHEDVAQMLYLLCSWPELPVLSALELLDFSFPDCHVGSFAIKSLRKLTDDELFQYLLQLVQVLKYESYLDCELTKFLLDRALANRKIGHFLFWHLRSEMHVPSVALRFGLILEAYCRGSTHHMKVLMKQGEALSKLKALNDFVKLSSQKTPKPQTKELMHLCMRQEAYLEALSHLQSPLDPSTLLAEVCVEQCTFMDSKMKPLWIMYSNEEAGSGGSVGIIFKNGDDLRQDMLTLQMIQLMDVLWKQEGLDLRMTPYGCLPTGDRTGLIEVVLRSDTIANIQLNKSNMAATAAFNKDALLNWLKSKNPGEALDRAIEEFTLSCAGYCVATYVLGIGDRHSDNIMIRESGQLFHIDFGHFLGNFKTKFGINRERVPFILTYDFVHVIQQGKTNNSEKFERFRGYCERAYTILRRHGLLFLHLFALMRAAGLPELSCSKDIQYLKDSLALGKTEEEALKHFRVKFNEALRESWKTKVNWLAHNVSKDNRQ
A word on the pIC50: it is the IC50 on a negative log10 scale, so that one unit is a factor of ten. Read a high pIC50 as a low IC50. The compound `CCC(=O)N1CCC(Cc2ncnc3c2nc(-c2cnn(CC)c2C)n3C)C1` (configuration not stated) had a pIC50 of 6.60. As for `CCn1ncc(-c2nc3c(O[C@H]4CCN(C(=O)c5noc(C(C)(C)O)n5)C4)ncnc3n2C)c1C`, the figure is 6.92; as for `CCn1c(-c2cnc(C)nc2)nc2c(O[C@H]3CCN(c4cccc(F)c4)C3)ncnc21`, 8.66; as for `CCn1c(-c2ccc(OC)nc2)nc2c(O[C@H]3CCN(C(=O)C4CC(F)(F)C4)C3)ncnc21`, above 9.00. `CCn1ncc(-c2nc3c(O[C@H]4CCN(C(=O)c5cn[nH]c5)C4)ncnc3n2C)c1C`: the pIC50 was 7.80. In turn, `CCn1c(-c2ccc(C(F)(F)F)nc2)nc2c(O[C@H]3CCN(C(=O)N4CC(OC)C4)C3)ncnc21` showed a pIC50 above 9.00. Regarding `Cn1cnc2c(O[C@H]3CCN(C(=O)OC(C)(C)C)C3)ncnc21`, the pIC50 was 5.85.

Compound `CCn1ncc(-c2nc3c(O[C@H]4CCNC4)ncnc3n2C)c1C` gave a negative logarithm of the IC50 (pIC50) of 5.68. Next, `CCn1ncc(-c2nc3c(O[C@H]4CCN(C(=O)c5oc(C)nc5C)C4)ncnc3n2C)c1C`: 8.43; `CCn1ncc(-c2nc3c(O[C@H]4CCN(C(=O)c5nc(C)oc5C)C4)ncnc3n2C)c1C`: 8.14; `Cc1nn(C)cc1-c1nc2c(O[C@H]3CCN(C(=O)OC(C)(C)C)C3)ncnc2n1C`: 5.92. Next, `CCn1ncc(-c2nc3c(O[C@H]4CCN(C(=O)OC)C4)ncnc3n2C)c1C`: 7.92; `CCC(=O)N1CC[C@H](Oc2ncnc3c2nc(C(F)(F)F)n3CC)C1`: 7.00; `CCCN1CC[C@H](Oc2ncnc3c2nc(-c2cnn(CC)c2C)n3C)C1`: 6.42. As to `CC[C@@H]1CN(C(=O)C2CC2)C[C@H]1Oc1ncnc2c1nc(-c1cnc(C)nc1)n2CC.CC[C@H]1CN(C(=O)C2CC2)C[C@@H]1Oc1ncnc2c1nc(-c1cnc(C)nc1)n2CC`, the pIC50 is 8.21 and 7.70. Next, `CCC(=O)N1CC[C@H](Oc2ncnc3c2nc(-c2cnn(-c4ccccc4)c2C)n3C)C1`: 8.44; `CCn1ncc(-c2nc3c(CC4CCN(C(=O)C5CCOCC5)C4)ncnc3n2C)c1C` (configuration not stated): 6.54. As for `CCn1c(-c2ccc(C(F)(F)F)nc2)nc2c(O[C@H]3CCN(C(=O)C4CC4)C3)ncnc21`, the figure is 8.52.

The compound `CCn1ncc(-c2nc3c(O[C@H]4CCN(C(=O)c5ccno5)C4)ncnc3n2C)c1C` had a pIC50 of 8.33.

`CCn1ncc(-c2nc3c(O[C@@H]4CCN(C(=O)C5CCOCC5)C4)ncnc3n2C)c1C` showed a pIC50 of 5.80.

As to `CCn1ncc(-c2nc3c(O[C@H]4CCN(c5cc(C(F)(F)F)ccn5)C4)ncnc3n2C)c1C`, the pIC50 is 7.43. This pIC50 lies 1.63 log units higher than the previous one.

`CCn1ncc(-c2nc3c(S[C@H]4CCN(C(=O)c5coc(C)n5)C4)ncnc3n2C)c1C` gave a pIC50 of 7.60. This pIC50 and that of the compound before are within 0.2 log units of each other. `CCn1ncc(-c2nc3c(O[C@H]4CCN(c5ncnc6sc(C)cc56)C4)ncnc3n2C)c1C` gave a pIC50 of 8.28. Take `CCNC(=O)c1nc2c(O[C@H]3CCN(C(=O)OC(C)(C)C)C3)ncnc2n1CC`: the pIC50 is 6.51.

As to `CCn1ncc(-c2nc3c(O[C@H]4CCN(C(=O)C5CC(F)(F)C5)C4)ncnc3n2C)c1C`, the negative logarithm of the IC50 (pIC50) was 7.89. Turning to `CCn1ncc(-c2nc3c(CC4CCN(C(=O)OC(C)(C)C)C4)ncnc3n2C)c1C` (configuration not stated), the pIC50 was 6.25. Next, `CCC(=O)N1CC[C@H](Oc2ncnc3[nH]c(-c4cnn(CC)c4C)nc23)C1`: 7.62; `CCn1ncc(-c2nc3c(OC4CCN(C(=O)c5ccccc5)C4)ncnc3n2C)c1C` (configuration not stated): 7.17. On to `CCn1c(-c2cnc(C)nc2)nc2c(O[C@H]3CCN(C(=O)OC(C)(C)C)C3)ncnc21`, for which the pIC50 was 8.08. Next, `CCn1ncc(-c2nc3c(OC4CCN(C(=O)C5CCCC5)C4)ncnc3n2C)c1C` (configuration not stated): 8.03.

Compound `CCn1ncc(-c2nc3c(O[C@H]4CCN(C(=O)NC(C)C)C4)ncnc3n2C)c1C` gave a negative logarithm of the IC50 (pIC50) of 8.04. The pIC50 values of the last two compounds are within 0.2 log units of each other. `CCC(=O)N1CC[C@H](Oc2ncnc3c2nc(-c2ccc(C)nc2)n3C)C1` gave a pIC50 of 7.18. As for `CCn1c(-c2cnc(OC)c(Cl)c2)nc2c(O[C@H]3CCN(C(=O)C4CC4)C3)ncnc21`, the figure is above 9.00; as for `CCn1c(-c2cnc(C)nc2)nc2c(O[C@H]3CCN(C(=O)[C@H]4C[C@H]5CC[C@@H]4C5)C3)ncnc21`, 8.92. Next, `CCn1c(-c2cnc(C)c(F)c2)nc2c(O[C@H]3CCN(C(=O)C4CC4)C3)ncnc21`: 8.37; `CCn1c(-c2cnc(C)nc2)nc2c(O[C@H]3CCN(C(=O)C4[C@@H](C)[C@@H]4C)C3)ncnc21` (some centres not stated): 7.89. As for `CCn1ncc(-c2nc3c(O[C@H]4CCN(C(=O)c5cn(C)nn5)C4)ncnc3n2C)c1C`, the figure is 8.28. `CCn1ncc(-c2nc3c(O[C@H]4CCN(C(=O)C5CC5)C4)ncnc3n2C)c1C` had a negative logarithm of the IC50 (pIC50) of 8.20.

As to `CCC(=O)N1CC[C@H](Oc2ncnc3c2nc(-c2cnc4[nH]nc(C)c4c2)n3C)C1`, the pIC50 is 7.64. For the compound `CCn1ncc(-c2nc3c(O[C@H]4CCN(c5ncnc6sccc56)C4)ncnc3n2C)c1C`, the pIC50 was 8.24. As for `CCn1c(-c2cnc(C)nc2)nc2c(O[C@H]3CCN(c4cccnc4)C3)ncnc21`, the figure is 8.00; as for `CCC(=O)N1CC[C@H](Oc2ncnc3c2nc(-c2ccc4[nH]ncc4c2)n3C)C1`, 7.36.

Compound `CCn1ncc(-c2nc3c(OC4CCN(C(=O)c5ccccc5)CC4)ncnc3n2C)c1C` showed a negative-log IC50 (pIC50) of 6.02. `CCn1ncc(-c2nc3c(O[C@H]4CCN(c5ncnc6ccsc56)C4)ncnc3n2C)c1C` showed a pIC50 of 7.92. This pIC50 is 1.90 log units higher than that of the compound before. As for `CCn1c(-c2cnc(OC)c(F)c2)nc2c(O[C@H]3CCN(C(=O)C4CC4)C3)ncnc21`, the pIC50 is above 9.00.

Consider `CCC(=O)N1CC[C@H](Oc2ncnc3c2nc(-c2cnn(CC)c2C)n3C2CC2)C1`, for which the negative logarithm of the IC50 (pIC50) is 6.80. Next, `CCn1ncc(-c2nc3c(OC4CCN(C(=O)c5ccc6ccccc6c5)C4)ncnc3n2C)c1C` (configuration not stated): 7.55; `CCn1ncc(-c2nc3c(O[C@H]4CCN(C(=O)c5c[nH]nn5)C4)ncnc3n2C)c1C`: 7.92. As for `CCn1c(-c2cnc(C)nc2)nc2c(O[C@H]3CN(C(=O)C4CC4)C[C@@H]3O)ncnc21`, the figure is 7.77. Consider `CCn1ncc(-c2nc3c(O[C@H]4CCN(c5nccc(-c6ccco6)n5)C4)ncnc3n2C)c1C`, for which the pIC50 was 6.89. `CCn1c(-c2cnc(C)nc2)nc2c(O[C@H]3CCN(C(=O)N4CCC4)C3)ncnc21` had a pIC50 of 8.89. For `CCn1ncc(-c2nc3c(O[C@H]4CCN(c5ncccn5)C4)ncnc3n2C)c1C`, the pIC50 is 7.68. Against the preceding compound, the pIC50 is 1.21 log units lower.

With `CCn1c(-c2cnc(OC)c(F)c2)nc2c(O[C@H]3CCN(C(=O)c4cncn4C)C3)ncnc21`, the negative logarithm of the IC50 (pIC50) was 8.82.

For `CCC(=O)N1CCC(Oc2ncnc3c2nc(-c2cnn(CC)c2C)n3C)CC1`, the pIC50 is 6.10. In the case of `CCn1ncc(-c2nc3c(O[C@H]4CCN(C(C)=O)C4)ncnc3n2C)c1C`, the pIC50 is 7.25. In turn, `CCn1ncc(-c2nc3c(O[C@H]4CCN(C(=O)OC(C)(C)C)C4)ncnc3n2C)c1C` gave a pIC50 of 8.37.

Compound `Cc1n[nH]c2ncc(-c3nc4c(O[C@H]5CCN(C(=O)OC(C)(C)C)C5)ncnc4n3C)cc12` had a pIC50 of 8.40.

Consider `CCn1ncc(-c2nc3c(S[C@H]4CCN(C(=O)C5CCOCC5)C4)ncnc3n2C)c1C`, for which the pIC50 was 7.74. As for `CCn1ncc(-c2nc3c(O[C@H]4CCN(CC5CCCCC5)C4)ncnc3n2C)c1C`, the figure is 6.52; as for `CCn1ncc(-c2nc3c(O[C@H]4CCN(C(=O)c5c[nH]nc5C(F)(F)F)C4)ncnc3n2C)c1C`, 7.68. In turn, `CCn1ncc(-c2nc3c(OC4CC(C)N(C(=O)OC(C)(C)C)C4)ncnc3n2C)c1C` (configuration not stated) gave a pIC50 of 5.89. Turning to `CCn1c(-c2cnc(C)nc2)nc2c(O[C@@H]3CN(C(=O)OC(C)(C)C)CC3(F)F)ncnc21.CCn1c(-c2cnc(C)nc2)nc2c(O[C@H]3CN(C(=O)OC(C)(C)C)CC3(F)F)ncnc21`, the negative-log IC50 (pIC50) was 7.66. `CCn1ncc(-c2nc3c(O[C@H]4CCN(C(=O)Oc5cccc(C(F)(F)F)c5)C4)ncnc3n2C)c1C`: the pIC50 was 6.52.

`CCn1c(-c2cnc(C)nc2)nc2c(O[C@H]3CCN(C(=O)C4[C@@H](C)[C@H]4C)C3)ncnc21` (some centres not stated): the pIC50 is 7.92. The compound `CCn1ncc(-c2nc3c(O[C@H]4CCN(C(=O)Oc5ccc(C)cc5)C4)ncnc3n2C)c1C` gave a pIC50 of 6.47. In the case of `CCn1c(-c2cnc(OC)c(F)c2)nc2c(O[C@H]3CCN(C(=O)C4CC(F)(F)C4)C3)ncnc21`, the pIC50 was above 9.00. On to `Cn1c(-c2cn[nH]c2)nc2c(O[C@H]3CCN(C(=O)OC(C)(C)C)C3)ncnc21`, for which the pIC50 was 7.55. On to `CCn1c(-c2cnc(C)nc2)nc2c(O[C@H]3CCN(C(=O)N(C)c4ccccc4)C3)ncnc21`, for which the pIC50 is 7.49. As for `CCn1ncc(-c2nc3c(OC4CCC(C(=O)N5CCOCC5)C4)ncnc3n2C)c1C` (configuration not stated), the figure is 6.66. As for `CCn1c(-c2cnn3c2CCCC3)nc2c(O[C@H]3CCN(C(=O)C4CC4)C3)ncnc21`, the figure is above 9.00. As for `CCn1c(N2CCC(C)CC2)nc2c(O[C@H]3CCN(C(=O)OC(C)(C)C)C3)ncnc21`, the negative logarithm of the IC50 (pIC50) is 6.42. With `CCn1c(-c2cnc(C)nc2)nc2c(O[C@H]3C[C@@H](NC(=O)OC(C)(C)C)C3)ncnc21`, the pIC50 was 7.02 and 6.66. The compound `CCn1ncc(-c2nc3c(O[C@H]4CCN(c5nncc6ccccc56)C4)ncnc3n2C)c1C` had a pIC50 of 7.77. Regarding `CCC(=O)N1CC[C@H](Oc2ncnc3c2nc(CC(C)C)n3CC)C1`, the pIC50 is 6.62. Compared with the last compound, the pIC50 is 1.15 log units lower. `CCn1c(-c2ccnc(OC)c2)nc2c(O[C@H]3CCN(C(=O)C4CC4)C3)ncnc21` showed a negative logarithm of the IC50 (pIC50) of 7.70. In turn, `CCn1c(-c2cnc(C)nc2)nc2c(O[C@H]3CCN(c4ccc5cnoc5c4)C3)ncnc21` showed a pIC50 of 7.96. `CCn1ncc(-c2nc3c(O[C@H]4CCN(C(=O)c5ccn(C)n5)C4)ncnc3n2C)c1C` gave a pIC50 of 8.66. Next, `CCn1c(-c2cnc(C)nc2)nc2c(O[C@H]3CCN(C(=O)N4CC(OC)C4)C3)ncnc21`: 8.74; `CCn1ncc(-c2nc3c(O[C@H]4CCN(C(=O)Oc5ccc(OC)cc5)C4)ncnc3n2C)c1C`: 7.19. As for `CCC(=O)N1CC[C@H](Oc2ncnc3c2nc(-c2cnc(OC)c(C)c2)n3C)C1`, the figure is 8.68; as for `CCn1c(N2CCC(c3ccccc3)CC2)nc2c(O[C@H]3CCN(C(=O)OC(C)(C)C)C3)ncnc21`, 6.92. Take `CCn1ncc(-c2nc3c(OC4CCN(C(=O)C5CCCCC5)C4)ncnc3n2C)c1C` (configuration not stated): the negative logarithm of the IC50 (pIC50) is 7.66.
